Source: patent US9464291B2, “Methods and compositions for the treatment of cancer” (University of South Alabama, priority 2012, dated 2016)
Entries after “also recorded” stand apart in the source; their conditions may differ. Starred links: 1 amine or outer side, 2 acyl side, 3 side chain; linkers in the order of their positions; H or OH if unused. Positions of bridges follow the written chain, without caps; N, C: chain ends. Non-standard residues stand in square brackets, D forms with d. Residues, ends and D or L forms follow the SMILES beside them. Chains are numbered I, II in the order given. Actinocin(9to1) = Cc1c2oc3c(C)ccc(C(=O)[*:1])c3nc-2c(C(=O)[*:2])c(N)c1=O; NMeV = CN[C@H](C(=O)O)C(C)C; Nle = CCCC[C@H](N)C(=O)O; Sar = CNCC(=O)O

Experiments:
ERCC1 = conditions: human ovarian cancer cells after cisplatin exposure; cited from earlier work
OPN promoter = OPN promoter luciferase reporter assay in melanoma cell lines; format: cell-based, human; conditions: MDA-MB-435, MCC012A, MCC012F
Procedure: Empty pGL3 vector was used as control. Hedgehog ligands were added to the well 6 h prior to harvesting the cells (approximately 33 hr of initiation of transfection) for assay. Readings were normalized to total protein content. Each parameter was studied in triplicate and the experiment repeated at least 3 times. The data are represented as percent luciferase activity, which was derived as a percent of the relative light units in treated groups compared with the untreated groups.

Gli1 = assay: GLI1 silencing by shRNA constructs in MDA-MB-435 cells, Western blot; format: cell-based, human
Procedure: To evaluate the functional effects of active Hedgehog signaling stable cell lines that were knocked down for GLI1 expression by RNA interference were generated. The efficacy of three shRNA constructs for silencing GLI1 expression was assessed.
Generation of Stable Transfectants—Endogenous GLI1 from MDA-MB-435 cells was silenced using shRNAs (short hairpin RNA) cloned into pSuperior.neo+gfp plasmid (OligoEngine, Seattle, Wash.) (TABLE 1). Introduction of double-stranded RNA has proven to be a powerful tool to suppress gene expression through a process known as RNA interference (P. A. Sharp, Genes Dev. 13, 139 (1999)). However, in some mammalian cells this can provoke a strong cytotoxic response (T. Hunter, T. Hunt, R. J. Jackson, H. D. Robertson, J. Biol. Chem. 250, 409 (1975)). This non-specific effect can be circumvented by use of synthetic short [21- to 22-nucleotide (nt)] interfering RNAs (siRNAs), which can mediate strong and specific suppression of gene expression (S. M. Elbashir et al., Nature 411, 494 (2001)). shRNAs included a target sequence sense strand, a short hairpin, and a target sequence antisense strand.
Western Blotting Analysis—Whole cell lysates were collected in Nonidet P-40 buffer (150 mM NaCl, 50 mM Tris, 1% Nonidet P-40). […] Secreted OPN was assessed by loading an equal quantity of protein from the serum-free conditioned medium. […]

RAW264.7 cells [1] = assay: Osteoclast differentiation, TRAP assay, RAW264.7; format: cell-based, murine; conditions: DM supplemented with SHH (100 nM) or OPN (100 ng/ml) vs DM alone
Procedure: Cell lines—Human metastatic breast cancer cells, MDA-MB-231, were cultured in Dulbecco's Modified Eagle's Medium (DMEM/F12; Invitrogen, Carlsbad, Calif.), supplemented with 2 mM L-glutamine, 1 mM sodium pyruvate, 0.02 mM non-essential amino acids, 5% fetal bovine serum, FBS (Atlanta Biologicals, Norcross, Ga.), without antibiotics or antimycotics (cDME/F12). SUM1315 and SUM159 cells (DiMeo, T. A., et al. (2009) Cancer Res 69, 5364-5373) (Asterand, Detroit, Mich.) were cultured in DMEM/F12 supplemented with […] insulin, 5% FBS (Atlanta Biologicals) and either 10 ng/ml EGF or 1 ng/ml hydrocortisone, without antibiotics or antimycotics. The SUM1315 cells are derived from a metastasis in a patient with infiltrating ductal carcinoma; SUM159 cells were derived from a primary breast tumor with metaplastic ccarcinoma. RAW264.7 (ATCC, TIB 71) cells, a murine pre-osteoclastic line capable of differentiation and mineralization in culture (in presence of RANKL and MCSF), were grown in DMEM with L-glutamine (ATCC, 30-2002) supplemented with 10% FBS. A 2× differentiation medium (DM) was formulated for the RAW 264.7 cells comprising RAW264.7 growth medium supplemented with 20% FBS, RANKL (100 ng/ml) and M-CSF (40 ng/ml) (Matsubara, T., et al. J Bone Miner Res 25, 1068-1076). Conditioned media was harvested from breast cancer cells and mixed in a 1:1 ratio with double strength differentiation medium to assess the effect on osteoclast differentiation. 1×DM was used as control or wherever SHH (R & D Systems, Minneapolis, Minn.) or OPN (R & D Systems) was used alone. The medium on the RAW264.7 cells was replenished every 48 hours. In order to assess the effect of secreted Hh ligands, the neutralizing 5E1 antibody was used (Developmental Studies Hybridoma Bank, at the University of Iowa, Iowa). The amount of 5E1 antibody used for the studies was determined following titration of the antibody with respect to its effects on osteoclast differentiation. Medium was supplemented with 5E1 (2.5 μg/ml) and was changed on alternate days until the end of the experiment. The effect of OPN on osteoclast activity was assessed by transfecting an OPN shRNA-expressing construct on day 6 post-induction of differentiation. Fresh DM was added the following day and cells were allowed to grow for another 12 hours before termination of experiment. GLI1 expression was silenced in the SUM1315 cells using shRNA targeting GLI1 into pSuperior. gfp+neo (Oligoengine, Wash., USA). […]
Osteoclast differentiation and activity assays—Tartarate-resistant acid phosphatase (TRAP) assay was conducted for RAW 264.7 following the manufacturer's protocol (Sigma, St. Louis, Mo.). […] The percentage of area resorbed was calculated using the NIS-Elements BR. […]

RAW264.7 cells [2] = assay: Osteoclast resorption activity, OAAS plates; format: cell-based, murine; conditions: DM supplemented with SHH (100 nM) or OPN (100 ng/ml)
Procedure: Osteoclast differentiation and activity assays—Tartarate-resistant acid phosphatase (TRAP) assay was conducted for RAW 264.7 following the manufacturer's protocol (Sigma, St. Louis, Mo.). This assay was indicative of the extent of differentiation. OAAS plates (Osteogenic Core Technologies, Choongnam, Republic of Korea) were utilized to measure osteoclastic activity. RAW 264.7 cells (25×103) were inoculated in 48-well plates. Cells were treated with serum-free conditioned media from breast cancer cells or 100 nM SHH or 100 ng/ml OPN on the following day. Media was changed every two days and the experiments were terminated either on day 6 (day 7 for knockdown experiments, with transfections being done on the sixth day). At the completion, cells were detached with 5% sodium hypochlorite and the wells were observed under a Nikon Eclipse TS 100 microscope at 10× magnification. […] The percentage of area resorbed was calculated using the NIS-Elements BR. 3.1 software.

CC[C@H](C)[C@@H]1NC(=O)CNC(=O)[C@@H]2Cc3c([nH]c4cc(O)ccc34)[S+]([O-])C[C@@H](NC(=O)CNC1=O)C(=O)N[C@@H](CC(N)=O)C(=O)N1C[C@H](O)C[C@H]1C(=O)N[C@@H]([C@@H](C)[C@@H](O)CO)C(=O)N2 (stereo in doubt) [α-amanitin]
effect on ERCC1 up-regulation (ERCC1): blunted ERCC1 up-regulation

CCCC[C@@H](C=O)NC(=O)[C@H](CC(C)C)NC(=O)[C@H](CC(C)C)NC(C)=O [N-acetyl-leucyl-leucyl-norleucinal] (Ac-Leu-Leu-[Nle]-aldehyde)
effect on ERCC1 up-regulation (ERCC1): blunted ERCC1 up-regulation

Cc1cc(C)c(/C=C2\C(=O)Nc3ccccc32)[nH]1 [SU5416]
effect on ERCC1 up-regulation (ERCC1): blunted ERCC1 up-regulation

Cc1c2oc3c(C)ccc(C(=O)N[C@@H]4C(=O)N[C@H](C(C)C)C(=O)N5CCC[C@H]5C(=O)N(C)CC(=O)N(C)[C@@H](C(C)C)C(=O)O[C@@H]4C)c3nc-2c(C(=O)N[C@@H]2C(=O)N[C@H](C(C)C)C(=O)N3CCC[C@H]3C(=O)N(C)CC(=O)N(C)[C@@H](C(C)C)C(=O)O[C@@H]2C)c(N)c1=O [actinomycin D] (I: T[dV]P[Sar][NMeV] / II: T[dV]P[Sar][NMeV]; ester I:1-I:C, II:1-II:C; linker I:N-II:N via Actinocin(9to1))
effect on ERCC1 up-regulation (ERCC1): blunted ERCC1 up-regulation

[Cr] [chromium]
effect on ERCC1 up-regulation (ERCC1): blunted ERCC1 up-regulation

C[C@@H]1C[C@@H]([C@H](O)CC2CC(=O)NC(=O)C2)C(=O)[C@@H](C)C1 [cycloheximide]
effect on ERCC1 up-regulation (ERCC1): blunted ERCC1 up-regulation

CO[C@H]1[C@@H](OC)C[C@H](C)[C@@H](OC)C2=CC(=O)C=C(NC(=O)/C(C)=C/C=C\[C@H](OC)[C@@H](OC(N)=O)/C(C)=C/[C@@H]1C)C2=O [herbimycin A]
effect on ERCC1 up-regulation (ERCC1): blunted ERCC1 up-regulation

CC(=O)N[C@@H](CSC(=O)[C@]1([C@@H](O)C(C)C)NC(=O)[C@H](C)[C@@H]1O)C(=O)O [lactacystin]
effect on ERCC1 up-regulation (ERCC1): blunted ERCC1 up-regulation

[Pt] [platinum]
effect on ERCC1 up-regulation (ERCC1): blunted ERCC1 up-regulation

C[C@H]1CC[C@]2(NC1)O[C@H]1C[C@H]3[C@@H]4CC[C@H]5C[C@@H](O)CC[C@]5(C)[C@H]4CC[C@]3(C)[C@H]1[C@@H]2C [tomatidine]
OPN promoter activity (OPN promoter): had no effect on the promoter activity
OPN promoter activity (OPN promoter; listed as Tomatidine): had no effect on the promoter activity of OPN

GLI1 shRNA-2: shRNA construct targeting GLI1 mRNA sequence TCATCAACTCGCGATGCAC, position 325 (target site or template, no part of the molecule)
GLI1 silencing (Gli1; shRNA cloned into pSUPERIOR): effective at silencing GLI1; also recorded: more effective GLI1 silencing
OPN expression (Gli1; shRNA-transfected cells): decreased OPN expression

OPN: recombinant human osteopontin (R & D Systems)
numbers of TRAP stained multinucleate cells (RAW264.7 cells [1]): significant (p<0.005) increase
osteoclast activity (area resorbed) (RAW264.7 cells [2]): notably enhances (p<0.001) osteoclast activity

B1: interleukin 1-α: interleukin 1-α (protein, UniProt P01583 113-271, looked up)
Interleukin-1 alpha: SAPFSFLSNVKYNFMRIIKYEFILNDALNQSIIRANDQYLTAAALHNLDEAVKFDMGAYKSSKDDAKITVILRISKTQLYVTAQDEDQPVLLKEMPEIPKTITGSETNLLFFWETHGTKNYFTSVAHPNLFIATKQDYWVCLAGGPPSITDFQILENQA
effect on ERCC1 up-regulation (ERCC1): blunted ERCC1 up-regulation
